Read-outs that look alike come from different tables or passages of the source.
Columns and labels:
phosphorylated PDK1 = phosphorylated PDK1 (Homo sapiens (Human), UniProt O15530); assay: PDK1 kinase assay (coupled PDK1/AKT/FAM-crosstide, IMAP); format: biochemical; details: 0.5 nM phosphorylated PDK1, 24 μM ATP; read-out: Inhibition of phospo-PDK1 in vitro IC50
phospho-akt (Thr308) = phospho-akt (Thr308) MSD ELISA in PC-3 cells; format: cell-based; details: Homo sapiens, PC-3 cells; for EC50: PC-3, 2 h, 2 hours, no serum; for inhibition at 1 µM / inhibition at 10 µM: read-out: Percent Inhibition of phospho-Akt (308) By MSD ELISA
How it was run: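 Read-out is MSD electrochemiluminescence after lysate capture overnight at 4 degrees and 1 hr RT detection-antibody step. Before lysis, overnight-plated PC-3 cells received three-fold serial dilutions of inhibitor in serum-free medium, with DMSO-only high controls.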

Phospho-T308 Akt = Phospho-T308 Akt detection using immunoblot (western blot) in PC-3 cells; format: cell-based; details: for Reduction of Cellular Levels of Akt p308 By Western: 2 hour incubation, concentration not given in Table 2
Method: A Phospho-T308 Akt detection using immunoblot (western blot) analysis was performed as described below.
PC-3 prostate cells were plated in a 6 well plate in F12K media (Invitrogen, Carlsbad, Calif.) plus 10% FBS (Invitrogen) and placed in incubator overnight. The stock of compound A was a 50 mM solution in DMSO. 1000× dilutions of the compound were made in DMSO. The 1000× dilutions include, 35 mM, 25 mM, 15 mM, 10 mM, 7 mM, 5 mM, and 1 mM. 1 μl of the 1000× dilutions was added to 1 ml F12K media without serum for final concentrations of […]. 1 μl of DMSO was added to 1 ml media with no serum for a control. The 1 ml DMSO or compound plus media was then added to the cells. Following a 2 hour incubation at 37° C., cells were harvested and washed in PBS and subjected to centrifugation at 3,300 rpm for 5 minutes. Cells were lysed in 100 μl of Bio Rad Bioplex buffer containing protease inhibitors (BioRad, Hercules, Calif.) for 30 minutes on ice followed by centrifugation at 13,000 rpm for 5 minutes. The protein content of the supernatant was assayed using DC Protein Assay (BioRad). 25 μl of protein was added to 4× sample buffer (Invitrogen) and sample reducer (Invitrogen) and run on a 4-12% NuPage gel (Invitrogen). Proteins were then transferred to nitrocellulose (Invitrogen). The membrane was blocked in Tris-buffered saline (Sigma, St. Louis, Mo.) plus 0.1% Tween (Sigma) (T-TBS) plus 5% blotting grade milk (BioRad) for 60 minutes. Membranes were then incubated in T-TBS plus 5% BSA (Sigma) plus 1:1000 of anti-phospho akt (Thr 308) (Cell Signaling Technology, Beverly, Mass.) overnight at 4° C. Membranes were washed in T-TBS then incubated in 1:2000 of anti-rabbit-HRP (Cell Signaling) in TTBS plus 5% milk. Membranes were washed again and proteins were visualized with Super Signal West Pico (Pierce, Rockford, Ill.) and using Kodak BioMax MR film (Kodak, Rochester, N.Y.).
Phospho-akt 308 protein bands on the film were quantified using densitometry. An Alpha Imager (Alpha Innotech Corp, San Leandro, Calif.) using AlphaEase FC software version 4.1.0 (Alpha Innotech Corp.) was used to quantitate protein bands. Briefly, a rectangle of equal size was placed around each protein band as well as a background spot on the film. The densitometry values (IDV=Integrated Density Value) obtained for the background spot was then subtracted from the values obtained for the protein bands. These values were used to obtain an EC50 value using non-linear regression analysis in GraphPad Prism Version 4.00 (Graph Pad Prism, San Diego, Calif.). Percent decrease in expression of phosphoh-akt 308 were also measured specifically at 2 μM and 5 μM levels of inhibitor.

dephosphorylated PDK1 = dephosphorylated PDK1 (Homo sapiens (Human), UniProt O15530); assay: PDK1 kinase assay (coupled PDK1/AKT/FAM-crosstide, IMAP); format: biochemical; details: 25 nM un-phosphorylated PDK1, 24 μM ATP; read-out: Inhibition of dephospo-PDK1 in vitro IC50
Method: A PDK1 kinase assay was performed as follows. PDK1 (amino acids 51-360) and AKT2 (amino acids 140-467 fused to PIFtide, amino acids […]) were expressed as N-terminally tagged GST fusion proteins in insect cells and purified to greater than 90% homogeneity. PDK1 protein was divided into two fractions, one of which was subsequently dephosphorylated. To generate dephosphorylated PDK1, the PDK1 was reacted with GST-tagged lambda-phosphatase in vitro. GST was subsequently cleaved proteolytically for both phosphorylated and dephosphorylated PDK1. Protein preparations were run on glutathione Sepharose columns to remove GST and GST-tagged lambda-phosphatase, if present. Phosphorylated PDK1 and dephosphorylated PDK1 were verified by mass-spectrometry. Enzyme activity was determined in a coupled PDK1/AKT/FAM-crosstide assay using either phosphorylated or unphosphorylated PDK1 and phosphorylation of FAM-crosstide was determined by standard IMAP protocol (Molecular Devices). For inhibition studies, compounds were titrated 3-fold in DMSO and diluted 40-fold into assay buffer (10 mM Tris HCl pH7.2; 10 mM MgCl2; 0.01% Triton X-100; 1 mM DTT) containing PDK1, AKT2, and FAM-crosstide. (final concentrations: 25 nM un-phosphorylated PDK1 or 0.5 nM phosphorylated PDK1, 30 nM unphosphorylated AKT2, and 100 nM crosstide substrate). The kinase reaction was initiated by adding ATP to a final concentration of 24 μM for both forms of PDK1 and incubated at 25° C. for 30 min. To detect assay product, the kinase reaction was combined with Progressive Binding Solution (1:600 Progressive Binding Reagent, 50% Buffer A, 50% Buffer B, Molecular Devices) in a 1:3 ratio. The mixture was incubated for 2 hours at 25° C. and the plate was scanned on an Analyst AD with excitation at 485 nm and emission at 530 nm. The fluorescence polarization value “P” is defined by the equation below. The value “mP” is generated by multiplying the P value for each reaction well by a factor of 1000. The value “ΔmP” for each well is the mP value for that well minus the mP value for the average negative control. P=(Fpar−Fperp)/(Fpar+Fperp) Eq.:
Where “par” is fluorescence intensity parallel to the excitation plane; and “perp” is fluorescence intensity perpendicular to the excitation plane. ΔmP values were plotted as a function of compound concentration and the data were analyzed with a 4-parameter fit using GraphPad Prism software.

[1] = read-out: Inhibition of P308 Akt in cells using MSD EC50
[2] = Homo sapiens, read-out: Percent Inhibition of phospho-Akt (308) By Western
[3] = read-out: Reduction of Cellular Levels of Akt p308 By MSD ELISA (EC50 μM)

Sequence of dephosphorylated PDK1 (O15530 51-360): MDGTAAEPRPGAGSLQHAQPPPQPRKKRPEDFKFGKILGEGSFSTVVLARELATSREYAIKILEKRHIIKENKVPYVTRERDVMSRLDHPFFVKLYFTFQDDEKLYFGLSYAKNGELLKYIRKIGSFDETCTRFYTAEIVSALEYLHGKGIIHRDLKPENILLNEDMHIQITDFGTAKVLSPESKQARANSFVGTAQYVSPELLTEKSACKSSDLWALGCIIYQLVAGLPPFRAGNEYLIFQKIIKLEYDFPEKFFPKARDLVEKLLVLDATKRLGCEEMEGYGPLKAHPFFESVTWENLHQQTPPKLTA
Sequence of phosphorylated PDK1 (O15530 51-360): as above

SMILES | IC50 (phosphorylated PDK1) [nM] | EC50 (phospho-akt (Thr308); [1]) [µM] | inhibition at 1 µM (phospho-akt (Thr308)) [%] | inhibition at 10 µM (phospho-akt (Thr308)) [%] | Reduction of Cellular Levels of Akt p308 By Western (Phospho-T308 Akt) | inhibition at 5 µM (Phospho-T308 Akt; [2]) [%] | inhibition at 2 µM (Phospho-T308 Akt; Homo sapiens, at 2 μM, read-out: Percent Inhibition of phospho-Akt (308) By Western) [%] | IC50 (dephosphorylated PDK1) [nM] | EC50 (phospho-akt (Thr308); [3]) [µM]
O=C(NCc1cccc(-c2c[nH]c3ncc(F)cc23)c1)c1cccn(Cc2ccc(F)c(F)c2)c1=O [Cpd 10] | < 500 | 1 to 5 | 25 to 75 | > 75 | bbb (inhibition of more than 75%) | > 75 | – | – | –
O=C(NCc1cccc(-c2ccc3nccn3c2)c1)c1cccn(Cc2ccc(F)c(F)c2)c1=O [Cpd 336] | – | – | 25 to 75 | > 75 | – | > 75 | – | – | –
CNC(=O)C[C@@H](NC(=O)c1cccn(Cc2ccc(F)c(F)c2)c1=O)c1nnc(-c2c[nH]c3ncccc23)o1 [Cpd 299] | < 500 | – | < 25 | < 25 | bb (inhibition of from 25% to 75%) | 25 to 75 | – | – | –
O=C(NCc1cc(-c2c[nH]c3ncccc23)cs1)c1cccn(Cc2ccc(F)c(F)c2)c1=O [Cpd 17] | < 500 | 1 to 5 | 25 to 75 | > 75 | bbb (inhibition of more than 75%) | – | > 75 | – | –
O=C(NCc1ncc(-c2c[nH]c3ncccc23)s1)c1cccn(Cc2ccc(F)c(F)c2)c1=O [Cpd 132] | < 500 | < 1 | 25 to 75 | > 75 | bbb (inhibition of more than 75%) | > 75 | – | – | –
CC(=O)NC[C@@H](NC(=O)c1cccn(Cc2ccc(F)c(F)c2)c1=O)c1nc(-c2c[nH]c3ncccc23)cs1 [Cpd 136] | – | – | – | – | – | 25 to 75 | – | – | –
O=C(C[C@@H](NC(=O)c1cccn(Cc2ccc(F)c(F)c2)c1=O)c1nnc(-c2c[nH]c3ncccc23)o1)NCCO [Cpd 297] | < 500 | – | < 25 | < 25 | – | – | – | < 500 | –
Cc1ccc(NC(=O)c2cccn(Cc3ccc(F)c(F)c3)c2=O)cc1-c1ccc2[nH]c(=O)[nH]c2c1 [Cpd 167] | 500 to 10000 | > 5 | – | – | – | – | – | 500 to 10000 | –
O=C(NCc1cccc(-c2ccc3[nH]ncc3c2)c1)c1cccn(Cc2ccc(F)c(F)c2)c1=O [Cpd 213] | < 500 | – | – | – | – | – | – | < 500 | 1 to 5
O=C(N[C@H](CCCO)c1nc(-c2c[nH]c3ncccc23)c[nH]1)c1cccn(Cc2ccc(F)c(F)c2)c1=O [Cpd 313] | < 500 | – | 25 to 75 | 25 to 75 | – | – | – | < 500 | –
O=C(NCc1ccc(-c2c[nH]c3ncc(Cl)cc23)s1)c1cccn(Cc2ccc(F)c(F)c2)c1=O [Cpd 23] | < 500 | > 5 | – | – | – | – | – | < 500 | > 5
O=C(NCc1ccc(-c2ccc3[nH]ncc3c2)s1)c1cccn(Cc2ccc(F)c(F)c2)c1=O [Cpd 52] | < 500 | 1 to 5 | – | – | – | – | – | < 500 | –
O=C(NCc1nnc(-c2c[nH]c3ncccc23)o1)c1cccn(Cc2ccc(F)c(F)c2)c1=O [Cpd 125] | < 500 | 1 to 5 | 25 to 75 | > 75 | – | – | – | < 500 | 1 to 5
CNc1nc(-c2ccc(CNC(=O)c3cccn(Cc4ccc(F)c(F)c4)c3=O)s2)cn2ccnc12 [Cpd 325] | 500 to 10000 | > 5 | – | – | – | – | – | < 500 | –
O=C1Cc2ccc(/C=C/CNC(=O)c3cccn(Cc4cc(F)c(F)c(F)c4)c3=O)cc2N1 [Cpd 166] | < 500 | > 5 | – | – | – | – | – | < 500 | –
COC(=O)c1cc(-c2c[nH]c3ncccc23)cc(CNC(=O)c2cccn(Cc3ccc(F)c(F)c3)c2=O)n1 [Cpd 175] | < 500 | < 1 | – | – | – | – | – | < 500 | –
O=C(NCc1noc(-c2c[nH]c3ncccc23)n1)c1cc(Cl)cn(Cc2ccc(F)c(F)c2)c1=O [Cpd 314] | < 500 | > 5 | 25 to 75 | > 75 | – | – | – | < 500 | –
O=C(NCc1cnc(-c2c[nH]c3ncccc23)s1)c1cccn(Cc2ccc(Cl)c(Cl)c2)c1=O [Cpd 323] | < 500 | 1 to 5 | – | – | – | – | – | < 500 | 1 to 5
O=C(N[C@@H](COc1ccc2[nH]c(=O)[nH]c2c1)Cc1ccccc1)c1cccn(Cc2ccc(F)c(F)c2)c1=O [Cpd 321] | < 500 | > 5 | < 25 | > 75 | – | – | – | < 500 | –
C[C@@H](c1ccc(F)cc1)n1cccc(C(=O)NCc2noc(-c3c[nH]c4ncccc34)n2)c1=O [Cpd 311] | < 500 | – | < 25 | > 75 | – | – | – | < 500 | –
O=C(NCc1cc(-c2c[nH]c3ncccc23)[nH]n1)c1cccn(Cc2cc(F)c(F)c(F)c2)c1=O [Cpd 152] | < 500 | 1 to 5 | – | – | – | – | – | < 500 | –
O=C(NCc1ccc(-c2cccc3[nH]ncc23)s1)c1cccn(Cc2ccc(F)c(F)c2)c1=O [Cpd 58] | < 500 | 1 to 5 | – | – | – | – | – | < 500 | –
O=C(NCc1ccc(-c2n[nH]c3ncccc23)s1)c1cccn(Cc2ccc(F)c(F)c2)c1=O [Cpd 7] | < 500 | < 1 | 25 to 75 | > 75 | – | – | – | < 500 | < 1
O=C(NCCOc1cc2[nH]c(=O)[nH]c2cn1)c1cccn(Cc2ccc(F)c(F)c2)c1=O [Cpd 279] | < 500 | – | – | – | – | – | – | < 500 | > 5

Source: US9873693B2 (Sunesis Pharmaceuticals, Inc., priority 2006, dated 2018)
